Measurements: article PMC10046369, “Low-Affinity/High-Selectivity Dopamine Transport Inhibition Sufficient to Rescue Cognitive Functions in the Aging Rat” (Biomolecules, 2023)

Assays:
AAK1 = AAK1 (Homo sapiens, UniProt Q2M2I8); test: biochemical; parameters: KINOMEscan competition binding panel, per cent of control; conditions: read-out: %Ctrl @ 2800nM
Summary of the method: (§1)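 Competition binding panel (KINOMEscan) across 450 human kinases and disease-relevant mutants, run to the contractor's standard protocol. Values are % control: (test signal − positive control signal)/(negative control signal − positive control signal) × 100, with lower values indicating stronger binding.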

[1] = molecular target: T1, ABL1(Q252H)-nonphosphorylated (Homo sapiens, UniProt P00519, Q252H); test: biochemical; parameters: KINOMEscan competition binding panel, per cent of control; conditions: read-out: %Ctrl @ 2800nM
T1 construct: nonphosphorylated
Summary of the method: as §1

BLK = BLK (Homo sapiens, UniProt P51451); test: biochemical; parameters: KINOMEscan competition binding panel, per cent of control; conditions: read-out: %Ctrl @ 2800nM
Summary of the method: as §1

FAK = molecular target: T2, FAK (Homo sapiens, UniProt Q05397); test: biochemical; parameters: KINOMEscan competition binding panel, per cent of control; conditions: read-out: %Ctrl @ 2800nM
T2 construct: gene PTK2
Summary of the method: as §1

FGFR2 = FGFR2 (Homo sapiens, UniProt P21802); test: biochemical; parameters: KINOMEscan competition binding panel, per cent of control; conditions: read-out: %Ctrl @ 2800nM
Summary of the method: as §1

HPK1 = molecular target: T3, HPK1 (Homo sapiens, UniProt Q92918); test: biochemical; parameters: KINOMEscan competition binding panel, per cent of control; conditions: read-out: %Ctrl @ 2800nM
T3 construct: gene MAP4K1
Summary of the method: as §1

HUNK = HUNK (Homo sapiens, UniProt P57058); test: biochemical; parameters: KINOMEscan competition binding panel, per cent of control; conditions: read-out: %Ctrl @ 2800nM
Summary of the method: as §1

MEK6 = molecular target: T4, MEK6 (Homo sapiens, UniProt P52564); test: biochemical; parameters: KINOMEscan competition binding panel, per cent of control; conditions: read-out: %Ctrl @ 2800nM
T4 construct: gene MAP2K6
Summary of the method: as §1

MLCK = molecular target: T5, MLCK (Homo sapiens, UniProt Q32MK0); test: biochemical; parameters: KINOMEscan competition binding panel, per cent of control; conditions: read-out: %Ctrl @ 2800nM
T5 construct: gene MYLK3
Summary of the method: as §1

NDR2 = molecular target: T6, NDR2 (Homo sapiens, UniProt Q9Y2H1); test: biochemical; parameters: KINOMEscan competition binding panel, per cent of control; conditions: read-out: %Ctrl @ 2800nM
T6 construct: gene STK38L
T6 sequence (Q9Y2H1 whole entry): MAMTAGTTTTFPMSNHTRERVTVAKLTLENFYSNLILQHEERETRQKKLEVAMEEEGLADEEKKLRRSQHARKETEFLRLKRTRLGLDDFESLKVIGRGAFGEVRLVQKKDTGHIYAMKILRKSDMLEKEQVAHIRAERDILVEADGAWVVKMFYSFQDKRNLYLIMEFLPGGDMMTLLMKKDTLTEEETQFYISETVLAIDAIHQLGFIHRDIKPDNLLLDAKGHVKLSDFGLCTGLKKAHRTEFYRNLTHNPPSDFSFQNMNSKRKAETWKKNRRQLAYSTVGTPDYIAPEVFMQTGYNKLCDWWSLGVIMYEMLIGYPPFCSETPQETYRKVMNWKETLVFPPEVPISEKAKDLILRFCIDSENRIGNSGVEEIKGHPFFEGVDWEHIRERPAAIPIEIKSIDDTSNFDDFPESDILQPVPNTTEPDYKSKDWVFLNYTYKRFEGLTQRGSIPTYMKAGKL
Summary of the method: as §1

PIK3C2G = PIK3C2G (Homo sapiens, UniProt O75747); test: biochemical; parameters: KINOMEscan competition binding panel, per cent of control; conditions: read-out: %Ctrl @ 2800nM
PIK3C2G, sequence (O75747 whole entry): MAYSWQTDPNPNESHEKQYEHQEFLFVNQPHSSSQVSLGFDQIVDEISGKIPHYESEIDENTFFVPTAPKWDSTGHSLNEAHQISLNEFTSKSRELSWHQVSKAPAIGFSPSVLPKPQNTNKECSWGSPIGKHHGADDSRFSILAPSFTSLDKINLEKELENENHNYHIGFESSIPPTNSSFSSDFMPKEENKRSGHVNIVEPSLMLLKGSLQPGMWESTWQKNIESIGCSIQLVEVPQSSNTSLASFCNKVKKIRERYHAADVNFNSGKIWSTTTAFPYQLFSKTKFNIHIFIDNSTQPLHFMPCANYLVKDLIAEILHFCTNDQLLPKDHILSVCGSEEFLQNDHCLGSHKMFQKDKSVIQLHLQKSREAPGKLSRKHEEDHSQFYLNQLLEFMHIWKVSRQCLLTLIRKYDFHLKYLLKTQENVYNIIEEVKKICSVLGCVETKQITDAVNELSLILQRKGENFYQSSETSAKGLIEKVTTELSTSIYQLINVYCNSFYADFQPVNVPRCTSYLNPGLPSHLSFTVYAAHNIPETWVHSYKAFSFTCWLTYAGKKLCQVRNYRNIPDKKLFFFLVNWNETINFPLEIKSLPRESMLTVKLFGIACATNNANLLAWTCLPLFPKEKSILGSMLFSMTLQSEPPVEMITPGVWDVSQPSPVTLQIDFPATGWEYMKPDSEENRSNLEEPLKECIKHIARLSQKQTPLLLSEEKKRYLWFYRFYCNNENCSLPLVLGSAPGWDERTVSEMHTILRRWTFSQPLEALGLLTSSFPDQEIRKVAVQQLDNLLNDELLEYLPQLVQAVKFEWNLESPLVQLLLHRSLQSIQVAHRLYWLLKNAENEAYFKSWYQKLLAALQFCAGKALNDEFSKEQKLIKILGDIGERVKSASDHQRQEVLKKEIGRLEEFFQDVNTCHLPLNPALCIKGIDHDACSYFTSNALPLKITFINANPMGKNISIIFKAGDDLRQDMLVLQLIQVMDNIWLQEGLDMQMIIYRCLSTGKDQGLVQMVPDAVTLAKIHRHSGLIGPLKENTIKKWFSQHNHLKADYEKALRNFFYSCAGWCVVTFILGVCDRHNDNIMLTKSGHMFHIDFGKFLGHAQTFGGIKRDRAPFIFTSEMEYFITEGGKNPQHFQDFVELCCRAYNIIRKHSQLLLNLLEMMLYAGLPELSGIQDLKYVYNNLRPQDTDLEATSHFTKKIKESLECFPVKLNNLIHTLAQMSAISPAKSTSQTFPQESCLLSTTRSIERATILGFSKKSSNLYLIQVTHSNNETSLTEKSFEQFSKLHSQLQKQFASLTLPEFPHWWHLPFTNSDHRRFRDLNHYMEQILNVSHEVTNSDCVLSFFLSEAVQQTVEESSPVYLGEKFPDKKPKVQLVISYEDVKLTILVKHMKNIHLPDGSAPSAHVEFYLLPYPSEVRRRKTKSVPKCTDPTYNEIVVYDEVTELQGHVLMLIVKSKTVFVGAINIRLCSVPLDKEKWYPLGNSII
Summary of the method: as §1

PIK3CA(H1047L) = PIK3CA(H1047L) (Homo sapiens, UniProt P42336, H1047L); test: biochemical; parameters: KINOMEscan competition binding panel, per cent of control; conditions: read-out: %Ctrl @ 2800nM
PIK3CA(H1047L), sequence (P42336 whole entry H1047L): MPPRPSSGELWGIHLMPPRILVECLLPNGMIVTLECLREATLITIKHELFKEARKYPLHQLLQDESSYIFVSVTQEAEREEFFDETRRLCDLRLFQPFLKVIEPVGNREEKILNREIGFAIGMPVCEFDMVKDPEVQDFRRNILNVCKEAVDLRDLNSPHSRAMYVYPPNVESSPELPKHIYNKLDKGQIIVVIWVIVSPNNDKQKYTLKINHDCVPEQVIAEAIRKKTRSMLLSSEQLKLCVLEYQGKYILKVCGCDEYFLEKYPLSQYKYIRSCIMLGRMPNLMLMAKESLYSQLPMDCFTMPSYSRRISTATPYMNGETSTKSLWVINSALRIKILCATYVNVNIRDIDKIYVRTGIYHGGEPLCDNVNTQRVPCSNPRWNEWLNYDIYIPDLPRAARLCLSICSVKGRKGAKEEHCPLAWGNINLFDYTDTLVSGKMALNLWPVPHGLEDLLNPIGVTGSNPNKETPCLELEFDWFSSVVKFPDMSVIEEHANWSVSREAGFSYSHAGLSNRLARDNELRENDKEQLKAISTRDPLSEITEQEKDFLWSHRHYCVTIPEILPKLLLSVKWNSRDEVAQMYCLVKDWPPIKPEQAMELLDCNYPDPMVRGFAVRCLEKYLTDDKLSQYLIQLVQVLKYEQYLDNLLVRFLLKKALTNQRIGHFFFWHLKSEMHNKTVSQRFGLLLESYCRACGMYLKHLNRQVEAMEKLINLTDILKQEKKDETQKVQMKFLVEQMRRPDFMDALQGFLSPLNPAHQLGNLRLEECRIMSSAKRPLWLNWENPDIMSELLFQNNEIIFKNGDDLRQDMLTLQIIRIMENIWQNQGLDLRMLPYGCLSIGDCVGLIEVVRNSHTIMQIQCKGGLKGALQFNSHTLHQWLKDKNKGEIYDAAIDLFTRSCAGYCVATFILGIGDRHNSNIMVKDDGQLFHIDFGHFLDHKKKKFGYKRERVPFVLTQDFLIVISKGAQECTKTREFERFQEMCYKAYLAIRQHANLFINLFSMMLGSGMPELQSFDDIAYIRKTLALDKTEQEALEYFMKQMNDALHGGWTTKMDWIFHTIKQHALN
Summary of the method: as §1

PIP5K1C = PIP5K1C (Homo sapiens, UniProt O60331); test: biochemical; parameters: KINOMEscan competition binding panel, per cent of control; conditions: read-out: %Ctrl @ 2800nM
Summary of the method: as §1

PKMYT1 = PKMYT1 (Homo sapiens, UniProt Q99640); test: biochemical; parameters: KINOMEscan competition binding panel, per cent of control; conditions: read-out: %Ctrl @ 2800nM
Summary of the method: as §1

PLK2 = PLK2 (Homo sapiens, UniProt Q9NYY3); test: biochemical; parameters: KINOMEscan competition binding panel, per cent of control; conditions: read-out: %Ctrl @ 2800nM
Summary of the method: as §1

PLK4 = PLK4 (Homo sapiens, UniProt O00444); test: biochemical; parameters: KINOMEscan competition binding panel, per cent of control; conditions: read-out: %Ctrl @ 2800nM
Summary of the method: as §1

RAF1 = RAF1 (Homo sapiens, UniProt P04049); test: biochemical; parameters: KINOMEscan competition binding panel, per cent of control; conditions: read-out: %Ctrl @ 2800nM
Summary of the method: as §1

[2] = molecular target: T7, RSK4(Kin.Dom.1-N-terminal) (Homo sapiens, UniProt Q9UK32); test: biochemical; parameters: KINOMEscan competition binding panel, per cent of control; conditions: read-out: %Ctrl @ 2800nM
T7 construct: gene RPS6KA6; Kin.Dom.1-N-terminal
Summary of the method: as §1

TNNI3K = TNNI3K (Homo sapiens, UniProt Q59H18); test: biochemical; parameters: KINOMEscan competition binding panel, per cent of control; conditions: read-out: %Ctrl @ 2800nM
Summary of the method: as §1

PFCDPK1(P.falciparum) = molecular target: T8, PFCDPK1(P.falciparum) (Plasmodium falciparum, UniProt P62344); test: biochemical; parameters: KINOMEscan competition binding panel, per cent of control; conditions: read-out: %Ctrl @ 2800nM
T8 construct: gene CDPK1

DP1 (h) = molecular target: T9, DP1 (h) (Homo sapiens, UniProt Q13258); test: cell-based; parameters: functional GPCR antagonist screen (Eurofins Cerep), percent inhibition of control agonist response; conditions: antagonist effect, against control agonist; read-out: % Inhibition of Control Agonist Response, Mean
T9 construct: gene PTGDR
T9 sequence (Q13258 whole entry): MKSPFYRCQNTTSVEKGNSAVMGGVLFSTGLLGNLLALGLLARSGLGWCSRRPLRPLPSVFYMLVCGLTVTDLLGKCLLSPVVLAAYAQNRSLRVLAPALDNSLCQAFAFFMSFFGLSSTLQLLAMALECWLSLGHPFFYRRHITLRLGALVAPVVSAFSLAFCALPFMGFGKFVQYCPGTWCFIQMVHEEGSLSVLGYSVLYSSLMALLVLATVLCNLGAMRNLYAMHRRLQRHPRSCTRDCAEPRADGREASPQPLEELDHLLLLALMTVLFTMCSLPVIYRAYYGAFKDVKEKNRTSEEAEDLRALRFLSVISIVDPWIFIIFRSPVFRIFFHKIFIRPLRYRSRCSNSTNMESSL

EP4 (h) = molecular target: T10, EP4 (h) (Homo sapiens, UniProt P35408); test: cell-based; parameters: functional GPCR antagonist screen (Eurofins Cerep), percent inhibition of control agonist response; conditions: antagonist effect, against control agonist; read-out: % Inhibition of Control Agonist Response, Mean
T10 construct: gene PTGER4

MC2 (h) = molecular target: T11, MC2 (h) (Homo sapiens, UniProt Q01718); test: cell-based; parameters: functional GPCR antagonist screen (Eurofins Cerep), percent inhibition of control agonist response; conditions: antagonist effect, against control agonist; read-out: % Inhibition of Control Agonist Response, Mean
T11 construct: gene MC2R
T11 sequence (Q01718 whole entry): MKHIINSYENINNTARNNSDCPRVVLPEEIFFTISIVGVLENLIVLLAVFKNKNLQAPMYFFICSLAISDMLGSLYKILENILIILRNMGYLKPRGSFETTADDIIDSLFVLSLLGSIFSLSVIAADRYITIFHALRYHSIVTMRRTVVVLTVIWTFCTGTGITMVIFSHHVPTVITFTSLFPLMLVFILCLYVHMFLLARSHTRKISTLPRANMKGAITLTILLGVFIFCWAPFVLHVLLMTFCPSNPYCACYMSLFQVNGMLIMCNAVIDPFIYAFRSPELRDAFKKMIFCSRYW

MRGX2 / MGRPLX2 (h) = molecular target: T12, MRGX2 / MGRPLX2 (h) (Homo sapiens, UniProt Q96LB1); test: cell-based; parameters: functional GPCR antagonist screen (Eurofins Cerep), percent inhibition of control agonist response; conditions: antagonist effect, against control agonist; read-out: % Inhibition of Control Agonist Response, Mean
T12 construct: gene MRGPRX2
T12 sequence (Q96LB1 whole entry): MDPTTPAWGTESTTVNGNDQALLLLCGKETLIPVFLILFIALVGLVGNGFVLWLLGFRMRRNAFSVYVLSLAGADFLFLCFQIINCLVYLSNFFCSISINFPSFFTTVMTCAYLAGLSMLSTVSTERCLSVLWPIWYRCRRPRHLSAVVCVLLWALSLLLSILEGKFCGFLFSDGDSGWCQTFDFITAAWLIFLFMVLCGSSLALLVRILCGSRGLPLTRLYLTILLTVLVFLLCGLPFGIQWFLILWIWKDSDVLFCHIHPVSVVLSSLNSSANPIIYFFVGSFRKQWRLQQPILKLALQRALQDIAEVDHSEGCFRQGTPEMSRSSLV

NTS2 (NT2) (h) = molecular target: T13, NTS2 (NT2) (h) (Homo sapiens, UniProt O95665); test: cell-based; parameters: functional GPCR antagonist screen (Eurofins Cerep), percent inhibition of control agonist response; conditions: antagonist effect, against control agonist; read-out: % Inhibition of Control Agonist Response, Mean
T13 construct: gene NTSR2

AAK1, sequence (Q2M2I8 whole entry): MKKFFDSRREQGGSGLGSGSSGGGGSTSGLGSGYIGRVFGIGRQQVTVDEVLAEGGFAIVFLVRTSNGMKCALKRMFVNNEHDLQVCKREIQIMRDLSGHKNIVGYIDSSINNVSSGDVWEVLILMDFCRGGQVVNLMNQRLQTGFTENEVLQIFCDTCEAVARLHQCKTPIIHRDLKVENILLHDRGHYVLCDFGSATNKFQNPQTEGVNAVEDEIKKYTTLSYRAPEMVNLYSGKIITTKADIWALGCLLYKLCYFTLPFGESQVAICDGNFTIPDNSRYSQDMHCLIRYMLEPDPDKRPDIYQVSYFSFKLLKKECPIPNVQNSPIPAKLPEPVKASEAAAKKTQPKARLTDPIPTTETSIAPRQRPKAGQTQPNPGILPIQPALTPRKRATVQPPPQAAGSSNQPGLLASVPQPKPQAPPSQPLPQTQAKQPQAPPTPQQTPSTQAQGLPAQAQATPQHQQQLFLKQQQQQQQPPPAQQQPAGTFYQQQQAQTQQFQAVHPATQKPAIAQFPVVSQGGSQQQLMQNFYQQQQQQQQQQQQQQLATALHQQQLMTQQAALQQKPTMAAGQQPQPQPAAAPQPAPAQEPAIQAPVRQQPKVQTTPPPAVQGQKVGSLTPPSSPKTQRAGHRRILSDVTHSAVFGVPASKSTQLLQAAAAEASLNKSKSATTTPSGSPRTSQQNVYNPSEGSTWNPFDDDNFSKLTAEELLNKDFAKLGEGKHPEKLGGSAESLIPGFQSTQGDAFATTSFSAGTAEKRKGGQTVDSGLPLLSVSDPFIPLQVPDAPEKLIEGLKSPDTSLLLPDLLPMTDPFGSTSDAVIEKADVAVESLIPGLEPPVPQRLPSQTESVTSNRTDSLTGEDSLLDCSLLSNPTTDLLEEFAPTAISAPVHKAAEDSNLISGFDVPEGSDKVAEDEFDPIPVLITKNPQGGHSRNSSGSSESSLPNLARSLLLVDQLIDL

Q: What does the source list for [O-][S@@+](Cc1cncs1)C(c1ccccc1)c1ccccc1 [S-CE-123, (S)-5-((Benzhydrylsulfinyl)Methyl)Thiazole]?
A: remaining binding at 2.8 µM (AAK1): 88%; remaining binding at 2.8 µM [1]: 66%; remaining binding at 2.8 µM (BLK): 90%; remaining binding at 2.8 µM (FAK): 100%; remaining binding at 2.8 µM (FGFR2): 87%; remaining binding at 2.8 µM (HPK1): 89%; remaining binding at 2.8 µM (HUNK): 100%; remaining binding at 2.8 µM (MEK6): 89%; remaining binding at 2.8 µM (MLCK): 96%; remaining binding at 2.8 µM (NDR2): 82%; remaining binding at 2.8 µM (PIK3C2G): 66%; remaining binding at 2.8 µM (PIK3CA(H1047L)): 100%; remaining binding at 2.8 µM (PIP5K1C): 100%; remaining binding at 2.8 µM (PKMYT1): 88%; remaining binding at 2.8 µM (PLK2): 89%; remaining binding at 2.8 µM (PLK4): 89%; remaining binding at 2.8 µM (RAF1): 76%; remaining binding at 2.8 µM [2]: 100%; remaining binding at 2.8 µM (TNNI3K): 100%; remaining binding at 2.8 µM (PFCDPK1(P.falciparum)): 70%; inhibition at 2.8 µM (DP1 (h)): -2.5%; inhibition at 2.8 µM (EP4 (h)): -1.5%; inhibition at 2.8 µM (MC2 (h)): 3.1%; inhibition at 2.8 µM (MRGX2 / MGRPLX2 (h)): 7.1%; inhibition at 2.8 µM (NTS2 (NT2) (h)): 22.9%
